The record followed here is BindingDB's records for doi:10.1007/s12154-010-0040-8 (Svims University, 2010).

For the experiment, the target named is T1, UDP-N-acetylmuramoylalanine--D-glutamate ligase (Leptospira interrogans serogroup Icterohaemorrhagiae serovar Lai (strain 56601), UniProt Q8F7V4).
T1 sequence (Q8F7V4 whole entry): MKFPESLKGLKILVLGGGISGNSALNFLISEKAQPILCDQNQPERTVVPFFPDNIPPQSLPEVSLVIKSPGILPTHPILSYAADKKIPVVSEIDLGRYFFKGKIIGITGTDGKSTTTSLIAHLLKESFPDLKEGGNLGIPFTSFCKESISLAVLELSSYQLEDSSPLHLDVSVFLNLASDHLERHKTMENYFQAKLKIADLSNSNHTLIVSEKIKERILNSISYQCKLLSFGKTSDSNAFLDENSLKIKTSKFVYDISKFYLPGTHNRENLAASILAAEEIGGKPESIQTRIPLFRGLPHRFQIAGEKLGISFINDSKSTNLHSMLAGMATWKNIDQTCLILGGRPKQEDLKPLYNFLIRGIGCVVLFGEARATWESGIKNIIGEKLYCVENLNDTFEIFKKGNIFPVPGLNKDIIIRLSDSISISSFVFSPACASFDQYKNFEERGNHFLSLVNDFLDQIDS
In words: Inhibition Assay. From the text: Inhibiton assay using MurgD.

Each structure is given as a SMILES string.

In turn, `O=C(O)c1cc(C(=O)O)cc(-c2ccc(/C=C3\SC(=S)N(c4ccc5c(c4)OCO5)C3=O)o2)c1` [Benzene 1,3-dicarvboxylic acid inhibitor] yielded a concentration for half-maximal inhibition (IC50) of 270 µM.
`C[C@@H](NC(=O)C=Cc1ccc2c(c1)OCO2)P(=O)(O)CC(CCC(=O)O)C(=O)O` (stereo partly drawn) [Phosphinate inhibitor 1] registered a 50% inhibitory concentration (IC50) of 95 µM.
The figure for `C[C@H](NS(=O)(=O)Cc1ccc([N+](=O)[O-])cc1)C(=O)N[C@@H](C)P(=O)(O)CC(CCC(=O)O)C(=O)O` (stereo partly drawn) [Phosphinate inhibitor 2] is 78 µM.

One may read the IC50 as the concentration at which inhibition is half-maximal. Low values mean higher potency, high ones lower potency.
